{"source": "patent US9932340B2", "about": "“Substituted indoles” (AbbVie Inc., priority 2014, dated 2018)"}
{"target": "SUV420H1 enzyme (Homo sapiens, UniProt Q4FZB7)", "sequence (Q4FZB7 whole entry)": "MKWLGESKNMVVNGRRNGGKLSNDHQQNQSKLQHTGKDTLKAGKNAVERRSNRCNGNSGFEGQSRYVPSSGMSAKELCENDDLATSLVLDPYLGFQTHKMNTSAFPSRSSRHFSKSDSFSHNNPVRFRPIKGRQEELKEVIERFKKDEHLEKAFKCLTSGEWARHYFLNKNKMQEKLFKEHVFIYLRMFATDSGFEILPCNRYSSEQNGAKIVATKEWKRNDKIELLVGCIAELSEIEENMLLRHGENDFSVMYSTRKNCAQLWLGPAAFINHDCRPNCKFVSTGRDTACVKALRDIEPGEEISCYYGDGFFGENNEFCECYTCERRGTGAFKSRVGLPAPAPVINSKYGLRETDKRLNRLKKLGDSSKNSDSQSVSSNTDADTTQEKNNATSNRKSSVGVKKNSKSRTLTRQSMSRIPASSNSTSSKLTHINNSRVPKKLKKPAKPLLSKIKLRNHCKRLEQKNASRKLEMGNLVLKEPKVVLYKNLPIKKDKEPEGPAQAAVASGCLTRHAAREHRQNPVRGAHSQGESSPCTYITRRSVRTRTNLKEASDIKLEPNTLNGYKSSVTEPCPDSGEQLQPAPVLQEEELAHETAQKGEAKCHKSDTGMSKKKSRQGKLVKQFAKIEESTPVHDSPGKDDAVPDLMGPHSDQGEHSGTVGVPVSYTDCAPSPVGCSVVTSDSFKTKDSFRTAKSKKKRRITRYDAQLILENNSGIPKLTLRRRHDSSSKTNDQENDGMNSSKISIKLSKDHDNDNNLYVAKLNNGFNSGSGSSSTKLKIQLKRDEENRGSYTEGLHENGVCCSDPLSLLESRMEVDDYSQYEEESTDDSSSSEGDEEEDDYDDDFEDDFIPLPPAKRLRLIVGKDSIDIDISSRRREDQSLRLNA", "experiment": "TR-FRET SAH SUV420H1 enzyme inhibition assay", "assay_type": "biochemical", "conditions": "Histone Peptide H4(8-30)me1 and SAM, overnight at room temp, TR-FRET detection of SAH, read-out: TR-FRET SAH_SUV420H1 IC50", "in_short": "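SUV420H1 (90 nM) preincubated 30 min with compound (3-fold dilutions, 50 to 0.00075 μM), then H4(8-30)me1 peptide 5 nM and SAM 4 nM added, overnight at room temp. SAH product detected by TR-FRET with Tb anti-SAH antibody and Oregon Green-SAH in RIPA buffer, 4 h; IC50 from Hill fit, asymptotes fixed 0-100%.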", "units": {"IC50": "nM"}}
{"molecule": "CC(C)(O)CC(=O)NCc1cc2cc(Cl)cc(Cn3cnc4c(N)ncnc43)c2[nH]1", "note": "[Example 103, N-({7-[(6-amino-9H-purin-9-yl)methyl]-5-chloro-1H-indol-2-yl}methyl)-3-hydroxy-3-methylbutanamide]", "IC50": 25300}
{"molecule": "Cn1cnc2cc(C(=O)NCc3cc4cc(Cl)cc(Cn5cnc6c(N)ncnc65)c4[nH]3)ccc21", "note": "[Example 361, N-({7-[(6-amino-9H-purin-9-yl)methyl]-5-chloro-1H-indol-2-yl}methyl)-1-methyl-1H-benzimidazole-5-carboxamide]", "IC50": 2150}
{"molecule": "Cc1cccc(C)c1CNCc1cc2cc(Cl)cc(Cn3cnc4c(N)ncnc43)c2[nH]1", "note": "[Example 290, 9-[(5-chloro-2-{[(2,6-dimethylbenzyl)amino]methyl}-1H-indol-7-yl)methyl]-9H-purin-6-amine]", "IC50": 2800}
{"molecule": "NCc1cc2cc(-c3cccc(C(=O)NC4CC4)c3)cc(Cn3cnc4c(N)ncnc43)c2[nH]1", "note": "[Example 51, 3-{2-(aminomethyl)-7-[(6-amino-9H-purin-9-yl)methyl]-1H-indol-5-yl}-N-cyclopropylbenzamide]", "IC50": 294}
{"molecule": "CC(C)(C)OC(=O)N1CC=C(c2cc(Cn3cnc4c(N)ncnc43)c3[nH]c(CNC(=O)c4ccc(C#N)cc4F)cc3c2)CC1", "note": "[Example 289, tert-butyl 4-(7-[(6-amino-9H-purin-9-yl)methyl]-2-{[(4-cyano-2-fluorobenzoyl)amino]methyl}-1H-indol-5-yl)-3,6-dihydropyridine-1(2H)-carboxylate]", "IC50": 61.3}
{"molecule": "Nc1ncnc2c1ncn2Cc1cc(Cl)cc2cc(C(N)c3ccccc3)[nH]c12", "note": "(centres unmarked) [Example 194, 9-({2-[amino(phenyl)methyl]-5-chloro-1H-indol-7-yl}methyl)-9H-purin-6-amine]", "IC50": 1950}
{"molecule": "Cc1cccc(CC(=O)NCc2cc3cc(Cl)cc(Cn4cnc5c(N)ncnc54)c3[nH]2)c1", "note": "[Example 293, N-({7-[(6-amino-9H-purin-9-yl)methyl]-5-chloro-1H-indol-2-yl}methyl)-2-(3-methylphenyl)acetamide]", "IC50": 20500}
{"molecule": "Cc1noc(C)c1C(=O)NCc1cc2cc(Cl)cc(Cn3cnc4c(N)ncnc43)c2[nH]1", "note": "[Example 162, N-({7-[(6-amino-9H-purin-9-yl)methyl]-5-chloro-1H-indol-2-yl}methyl)-3,5-dimethyl-1,2-oxazole-4-carboxamide]", "IC50": 237}
{"molecule": "Cc1nc2ccc(C(=O)NCc3cc4cc(Cl)cc(Cn5cnc6c(N)ncnc65)c4[nH]3)cc2o1", "note": "[Example 359, N-({7-[(6-amino-9H-purin-9-yl)methyl]-5-chloro-1H-indol-2-yl}methyl)-2-methyl-1,3-benzoxazole-6-carboxamide]", "IC50": 4280}
{"molecule": "C=CC(=O)NCc1cc2cc(Cl)cc(Cn3cnc4c(N)ncnc43)c2[nH]1", "note": "[Example 93, N-({7-[(6-amino-9H-purin-9-yl)methyl]-5-chloro-1H-indol-2-yl}methyl)prop-2-enamide]", "IC50": 9730}
{"molecule": "Nc1ncnc2c1ncn2Cc1cc(Cl)cc2cc(CNC(=O)C3CCC3)[nH]c12", "note": "[Example 111, N-({7-[(6-amino-9H-purin-9-yl)methyl]-5-chloro-1H-indol-2-yl}methyl)cyclobutanecarboxamide]", "IC50": 8800}
{"molecule": "Cc1oncc1C(=O)NCc1cc2cc(Cl)cc(Cn3cnc4c(N)ncnc43)c2[nH]1", "note": "[Example 149, N-({7-[(6-amino-9H-purin-9-yl)methyl]-5-chloro-1H-indol-2-yl}methyl)-5-methyl-1,2-oxazole-4-carboxamide]", "IC50": 2040}
{"molecule": "N#Cc1cc(Cl)c(C(=O)NCc2cc3cc(Cl)cc(Cn4cnc5c(N)ncnc54)c3[nH]2)c(Cl)c1", "note": "[Example 283, N-({7-[(6-amino-9H-purin-9-yl)methyl]-5-chloro-1H-indol-2-yl}methyl)-2,6-dichloro-4-cyanobenzamide]", "IC50": 52.6}
{"molecule": "CN(C)C(=O)c1cccc(-c2cc(Cn3cnc4c(N)ncnc43)c3[nH]c(CN)cc3c2)c1", "note": "[Example 48, 3-{2-(aminomethyl)-7-[(6-amino-9H-purin-9-yl)methyl]-1H-indol-5-yl}-N,N-dimethylbenzamide]", "IC50": 1330}
{"molecule": "Cc1cc(C(=O)NCc2cc3cc(Cl)cc(Cn4cnc5c(N)ncnc54)c3[nH]2)nn1C", "note": "[Example 182, N-({7-[(6-amino-9H-purin-9-yl)methyl]-5-chloro-1H-indol-2-yl}methyl)-1,5-dimethyl-1H-pyrazole-3-carboxamide]", "IC50": 5200}
{"molecule": "Cc1nc2cc(C(=O)NCc3cc4cc(Cl)cc(Cn5cnc6c(N)ncnc65)c4[nH]3)ccc2n1CCO", "note": "[Example 376, N-({7-[(6-amino-9H-purin-9-yl)methyl]-5-chloro-1H-indol-2-yl}methyl)-1-(2-hydroxyethyl)-2-methyl-1H-benzimidazole-5-carboxamide]", "IC50": 2950}
{"molecule": "COc1ccccc1-c1ccc(Cn2cnc3c(N)ncnc32)c2[nH]c(CN)cc12", "note": "[Example 80, 9-{[2-(aminomethyl)-4-(2-methoxyphenyl)-1H-indol-7-yl]methyl}-9H-purin-6-amine]", "IC50": 1850}
{"molecule": "Cc1noc(C)c1C(=O)NCc1cc2cc(C3=CCCNC3)cc(Cn3cnc4c(N)ncnc43)c2[nH]1", "note": "[Example 163, N-({7-[(6-amino-9H-purin-9-yl)methyl]-5-(1,2,5,6-tetrahydropyridin-3-yl)-1H-indol-2-yl}methyl)-3,5-dimethyl-1,2-oxazole-4-carboxamide]", "IC50": 127}
{"molecule": "CCC(=O)c1cc2cc(Cl)cc(Cn3cnc4c(N)ncnc43)c2[nH]1", "note": "[Example 90, 1-{7-[(6-amino-9H-purin-9-yl)methyl]-5-chloro-1H-indol-2-yl}propan-1-one]", "IC50": 2240}
{"molecule": "Nc1ncnc2c1ncn2Cc1cc(Cl)cc2cc(CNC(=O)c3ccccc3C(F)(F)F)[nH]c12", "note": "[Example 257, N-({7-[(6-amino-9H-purin-9-yl)methyl]-5-chloro-1H-indol-2-yl}methyl)-2-(trifluoromethyl)benzamide]", "IC50": 493}
{"molecule": "Nc1ncnc2c1ncn2Cc1cc(Cl)cc2cc(CNC(=O)[C@H]3CCCN3)[nH]c12", "note": "[Example 116, (2R)—N-({7-[(6-amino-9H-purin-9-yl)methyl]-5-chloro-1H-indol-2-yl}methyl)pyrrolidine-2-carboxamide]", "IC50": 8280}
{"molecule": "Nc1ncnc2c1ncn2Cc1cc(Cl)cc2cc(CNC(=O)c3c(F)cccc3Br)[nH]c12", "note": "[Example 226, N-({7-[(6-amino-9H-purin-9-yl)methyl]-5-chloro-1H-indol-2-yl}methyl)-2-bromo-6-fluorobenzamide]", "IC50": 275}
{"molecule": "Cn1ccnc1C(=O)NCc1cc2cc(Cl)cc(Cn3cnc4c(N)ncnc43)c2[nH]1", "note": "[Example 154, N-({7-[(6-amino-9H-purin-9-yl)methyl]-5-chloro-1H-indol-2-yl}methyl)-1-methyl-1H-imidazole-2-carboxamide]", "IC50": 4770}
{"molecule": "COc1ccc(C(=O)NCc2cc3cc(Cl)cc(Cn4cnc5c(N)ncnc54)c3[nH]2)cc1", "note": "[Example 258, N-({7-[(6-amino-9H-purin-9-yl)methyl]-5-chloro-1H-indol-2-yl}methyl)-4-methoxybenzamide]", "IC50": 4580}
{"molecule": "4-(aminomethyl)-N-({7-[(6-amino-9H-purin-9-yl)methyl]-5-(4,4-difluorocyclohexyl)-1H-indol-2-yl}methyl)-2-methylbenzamide [Example 301]", "IC50": 750}
{"molecule": "Nc1ncnc2c1ncn2Cc1cc(Cl)cc2cc(CNCc3cc(F)ccc3Cl)[nH]c12", "note": "[Example 217, 9-[(5-chloro-2-{[(2-chloro-5-fluorobenzyl)amino]methyl}-1H-indol-7-yl)methyl]-9H-purin-6-amine]", "IC50": 2430}
{"molecule": "Nc1ncnc2c1ncn2Cc1cc(Cl)cc2cc(CNC(=O)c3ccc4[nH]ccc4c3)[nH]c12", "note": "[Example 357, N-({7-[(6-amino-9H-purin-9-yl)methyl]-5-chloro-1H-indol-2-yl}methyl)-1H-indole-5-carboxamide]", "IC50": 12000}
{"molecule": "CC(C)CCC(=O)NCc1cc2cc(Cl)cc(Cn3cnc4c(N)ncnc43)c2[nH]1", "note": "[Example 105, N-({7-[(6-amino-9H-purin-9-yl)methyl]-5-chloro-1H-indol-2-yl}methyl)-4-methylpentanamide]", "IC50": 8170}
{"molecule": "C=Cc1ccc(Cn2cnc3c(N)ncnc32)c2[nH]c(CN)cc12", "note": "[Example 63, 9-{[2-(aminomethyl)-4-ethenyl-1H-indol-7-yl]methyl}-9H-purin-6-amine]", "IC50": 4030}
{"molecule": "Cc1nc2ccc(C(=O)NCc3cc4cc(Cl)cc(Cn5cnc6c(N)ncnc65)c4[nH]3)cc2s1", "note": "[Example 358, N-({7-[(6-amino-9H-purin-9-yl)methyl]-5-chloro-1H-indol-2-yl}methyl)-2-methyl-1,3-benzothiazole-6-carboxamide]", "IC50": 889}
{"molecule": "Nc1ncnc2c1ncn2Cc1cc(Cl)cc2cc(CNCc3c(F)cccc3F)[nH]c12", "note": "[Example 219, 9-[(5-chloro-2-{[(2,6-difluorobenzyl)amino]methyl}-1H-indol-7-yl)methyl]-9H-purin-6-amine]", "IC50": 3130}
{"molecule": "COc1cccc(C)c1C(=O)NCc1cc2cc(Cl)cc(Cn3cnc4c(N)ncnc43)c2[nH]1", "note": "[Example 299, N-({7-[(6-amino-9H-purin-9-yl)methyl]-5-chloro-1H-indol-2-yl}methyl)-2-methoxy-6-methylbenzamide]", "IC50": 1840}
{"molecule": "CC(C)(C)OC(=O)N1CCC[C@H]1C(=O)NCc1cc2cc(Cl)cc(Cn3cnc4c(N)ncnc43)c2[nH]1", "note": "[Example 123, tert-butyl (2S)-2-[({7-[(6-amino-9H-purin-9-yl)methyl]-5-chloro-1H-indol-2-yl}methyl)carbamoyl]pyrrolidine-1-carboxylate]", "IC50": 44900}
{"molecule": "CS(=O)(=O)c1ccc(CNCc2cc3cc(Cl)cc(Cn4cnc5c(N)ncnc54)c3[nH]2)cc1F", "note": "[Example 264, 9-{[5-chloro-2-({[3-fluoro-4-(methylsulfonyl)benzyl]amino}methyl)-1H-indol-7-yl]methyl}-9H-purin-6-amine]", "IC50": 3230}
{"molecule": "Nc1ncnc2c1ncn2Cc1cc(Cl)cc2cc(CNC(=O)c3ccc4ncoc4c3)[nH]c12", "note": "[Example 338, N-({7-[(6-amino-9H-purin-9-yl)methyl]-5-chloro-1H-indol-2-yl}methyl)-1,3-benzoxazole-6-carboxamide]", "IC50": 2850}
